Measured values as given in patent US8710095B2, “Drugs for prophylaxis or mitigation of taxane-induced neurotoxicity” (Bionumerik Pharmaceuticals, Inc., priority 2002, dated 2014).
“Also recorded” adds a separate entry of the source. Each block holds one compound with its values, some of them ahead of it.

How the values were obtained:
cancer patients = test: Individual patient cases (Examples 2 to 7): BNP7787 with paclitaxel and cisplatin; type: in vivo, human; details: for tumor response: with paclitaxel and cisplatin; for peripheral neurotoxicity: 3 cycles
Procedure: A patient with adenocarcinoma of unknown origin presented with a pituitary mass and supraclavicular and mediastinal lymph nodes. They received the following treatment regimen every 3 weeks: a single dose of paclitaxel (175 mg/m^2) administered IV over 3 hours, pre-cisplatin saline hydration (500 mL 0.9% NaCl) for 1 hour, a single dose of BNP7787 (18.4 g/m^2) administered IV over 15 minutes, immediately followed by a single dose of cisplatin (75 mg/m^2) administered IV over 1 hour and subsequently post-cisplatin saline hydration (250 mL 0.9% NaCl) for 30 minutes. The patient received a total of six cycles of study treatment and experienced peripheral neuropathy (NCI-CTC Grade 2) during Cycles 4 through 6.
A patient with adenocarcinoma of gastric origin received the following treatment regimen every 3 weeks: a single dose of paclitaxel (175 mg/m^2) administered IV over 3 hours, pre-cisplatin saline hydration (500 mL 0.9% NaCl) for 1 hour, a single dose of BNP7787 (18.4 g/m^2) administered IV over 15 minutes, immediately followed by a single dose of cisplatin (75 mg/m^2) administered IV over 1 hour and subsequently post-cisplatin saline hydration (250 mL 0.9% NaCl) for 30 minutes.
A patient with adenocarcinoma of unknown origin presented with retroperitoneal and lung masses. They received the following treatment regimen every 3 weeks: a single dose of paclitaxel (175 mg/m^2) administered IV over 3 hours, pre-cisplatin saline hydration (250 mL 0.9% NaCl) for 30 minutes, a single dose of BNP7787 (18.4 g/m^2) administered IV over 15 minutes, immediately followed by a single dose of cisplatin (75 mg/m^2) administered IV over 1 hour and subsequently post-cisplatin saline hydration (250 mL 0.9% NaCl) for 30 minutes. The patient received a total of six cycles of study treatment and experienced Grade 1 numbness and tingling (peripheral neuropathy) beginning Day 2 of Cycle 1 which resolved on Day 5. The patient again experienced Grade 1 peripheral neuropathy during Cycle 4.
(§1) A patient with adenocarcinoma of the lung received the following treatment regimen every 3 weeks: a single dose of paclitaxel (175 mg/m^2) administered IV over 3 hours, pre-cisplatin saline hydration for 1 hour, immediately followed by a single dose of BNP7787 (18.4 g/m^2) administered IV over 30 minutes, a single dose of cisplatin (75 mg/m^2) administered IV over 1 hour and subsequently post-cisplatin saline hydration for 1.5 hours.
as §1, with “hours. The patient received a total of 3 cycles of study treatment and experienced Grade 1 peripheral neurotoxicity beginning on Day 6 of Cycle 3, which resolved on Day 20 of Cycle 3.” for “hours.”
as §1, with “large cell carcinoma” for “adenocarcinoma”, “hours. The patient received a total of 3 cycles of study treatment and experienced Grade 1 peripheral neurotoxicity beginning on Day 5 of Cycle 2.” for “hours.”

[1] = test system: patients in the Phase I studies (US & Japan); test: US & Japan Phase I studies overall, incidence of neurotoxicity; type: in vivo, human
Procedure: Human clinical trials have been conducted in the United States, Europe and Japan regarding the safety and efficacy of the agents that make up this invention. These trials are ongoing. The following is a summary of the results obtained from early-stage (Phase 1) trials in the United States and Japan.
(§2) The number and percentage of patients who reported neurotoxicity in the Phase I studies compared with historical control data are summarized on the next page. Severity grades were measured according to NCI-CTC standards.
Overall, peripheral neuropathy, such as numbness, paresthesia or tingling, was reported in 54.5% of patients (30 patients, all severities) in the Phase I studies. The majority of neurotoxicity events experienced was mild in severity where 38.2% of patients (21 patients) reported Grade 1 neurotoxicity.

[2] = test system: patients with advanced solid tumors; test: Phase I study in the United States: 2,2′-dithiobis ethane sulfonate with paclitaxel and cisplatin, incidence of neurotoxicity; type: in vivo, human; details: United States (n = 36), all doses 4.1 to 41.0 g/m^2
Procedure: In the Phase I study in the United States, human patients in Stage I received the following treatment regimen every 3 weeks: a single dose of paclitaxel (175 mg/m^2) administered intravenously over 3 hours, pre-cisplatin saline hydration (1000 mL 0.9% NaCl) for 2 hours, followed immediately by a single dose of 2,2′-dithiobis ethane sulfonate (4.1, 8.2, 12.3, 18.4, 27.6 and 41.0 g/m^2, depending on cohort assignment) administered intravenously over 15 or 30 minutes, a single dose of cisplatin (75 mg/m^2) administered intravenously over 1 hour and subsequently post-cisplatin saline hydration (500 cc 0.9% NaCl) for 1 hour.
A total of 36 patients (22 patients in Stage I and 14 patients in Stage II) with advanced solid tumors have been enrolled and treated in this study at two clinical sites in the United States. A total of 138 treatment courses of BNP7787 with chemotherapy were given to 36 patients giving an average number of 3.8 treatment cycles per patient. A total of 13 patients (36.1%) completed at least five treatment cycles while 5 patients (13.9%) completed at least seven treatment cycles.
as §2

female Wistar rats = test: Paclitaxel-induced abnormal thermoesthesia, latent period for pseudo pain reactions (hot water bath 45° C.); type: in vivo, rat
Procedure: Paclitaxel was intravenously administered at a dose of 6 mg/kg once daily to female Wistar rats (8 rats per group) (the initial dosage date was defined as day 0). Treatment was repeated five times every other day.
The efficacy of 2,2′-dithiobis ethane sulfonate on the abnormal thermoesthesia occurring in response to the paclitaxel therapy was assessed using, as an index, a latent period for pseudo pain reactions. […] Each pseudo pain reaction-related latent period was measured on the day before the initial paclitaxel dosage (day −1, pretreatment), and daily for three days from the next day after the final paclitaxel dosage (from days 9 to 11, post-treatment), i.e., totally four times.
2,2′-dithiobis ethane sulfonate was, dissolved in water for injection to make its concentration 200 mg/ml upon use and the 2,2′-dithiobis ethane sulfonate solution thus prepared was intravenously administered at the dose of 500 mg/kg or 1,000 mg/kg immediately before the paclitaxel administration.

[3] = test system: patients with advanced Non-Small Cell Lung Cancer (NSCLC); test: Phase I study in Japan: 2,2′-dithiobis ethane sulfonate with paclitaxel and cisplatin, incidence of neurotoxicity; type: in vivo, human; details: Japan (NSCLC) (n = 19), all doses 4.1 to 41.0 g/m^2
Procedure: In the Phase I study in Japan, patients received the following treatment regimen every 3 weeks: a single dose of paclitaxel (175 mg/m^2) administered intravenously over 3 hours, pre-cisplatin saline hydration for 1 hour, immediately followed by a single dose of 2,2′-dithiobis ethane sulfonate (4.1, 8.2, 12.3, 18.4, 27.6 and 41.0 g/m^2, depending on cohort assignment) administered intravenously over 30 minutes, a single dose of cisplatin (75 mg/m^2) administered intravenously over 1 hour and subsequently post-cisplatin saline hydration for 1.5 hours.
A total of 19 patients with advanced Non-Small Cell Lung Cancer (NSCLC) have been enrolled and treated in this study at four clinical sites in Japan. Each patient was to receive a total of three treatment cycles during this study. A total of 43 treatment courses of 2,2′-dithiobis ethane sulfonate with chemotherapy were given to 19 patients giving an average of 2.3 treatment cycles per patient. A total of 11 patients (57.9%) completed all three treatment cycles while 8 patients (42.1%) discontinued therapy prior to completing the three treatment cycles.
as §2

[4] = Overall (US & Japan) (n = 55), all doses 4.1 to 41.0 g/m^2, with paclitaxel and cisplatin
[5] = Phase I studies US & Japan, with paclitaxel and cisplatin

SMILES: O=S(=O)([O-])CCSSCCS(=O)(=O)[O-].[Na+].[Na+] [2,2′-dithiobis ethane sulfonate]
- tumor response (cancer patients; Example 2: after Cycle 2, confirmed after Cycles 4 and 6): complete response
- peripheral neuropathy (NCI-CTC) (cancer patients; Example 2: person, adenocarcinoma of unknown origin, 18.4 g/m^2, six cycles, during Cycles 4 through 6): Grade 2
- peripheral neuropathy (cancer patients; Example 3: person, adenocarcinoma of gastric origin, 18.4 g/m^2, five cycles): no peripheral neuropathy
- tumor response (cancer patients; Example 3: stable Cycles 2 through 4, progression following Cycle 5, listed as BNP7787): stable disease; also recorded: progressive disease
- tumor response (cancer patients; Example 4: partial after Cycle 2, complete after Cycle 6, listed as BNP7787): partial response; also recorded: complete response
- peripheral neuropathy (numbness and tingling) (cancer patients; Example 4: person, adenocarcinoma of unknown origin, 18.4 g/m^2, six cycles, Cycle 1 Day 2 to 5 and Cycle 4): Grade 1
- tumor response (cancer patients; Example 5: after Cycles 2 and 3): partial response
- peripheral neurotoxicity (cancer patients; Example 5: person, adenocarcinoma of the lung, 18.4 g/m^2): no peripheral neurotoxicity
- tumor response (cancer patients; Example 6: after Cycles 2 and 3): partial response
- peripheral neurotoxicity (cancer patients; Example 6: person, adenocarcinoma of the lung, 18.4 g/m^2, Day 6 to Day 20 of Cycle 3): Grade 1
- peripheral neurotoxicity (cancer patients; Example 7: person, large cell carcinoma of the lung, 18.4 g/m^2, beginning Day 5 of Cycle 2): Grade 1
- tumor response (cancer patients; Example 7): stable disease
- Incidence of neurotoxicity, Neurotoxicity Grade (NCI-CTC) 1 [1, 4]: 21 (38.2) Number (%) of Patients
- Incidence of neurotoxicity, Neurotoxicity Grade (NCI-CTC) 2 [1, 4]: 9 (16.4) Number (%) of Patients
- Incidence of neurotoxicity, Neurotoxicity Grade (NCI-CTC) 3 [1, 4]: 0 (0.0) Number (%) of Patients
- Incidence of neurotoxicity, Neurotoxicity Grade (NCI-CTC) 4 [1, 4]: 0 (0.0) Number (%) of Patients
- Incidence of neurotoxicity, Neurotoxicity Grade (NCI-CTC) ≧2 [1, 4]: 9 (16.4) Number (%) of Patients
- Incidence of neurotoxicity, Overall (all grades) [1, 4]: 30 (54.5) Number (%) of Patients
- incidence of moderate to severe (≧Grade 2) neurotoxicity [1, 5]: 16.4%
- overall incidence of neurotoxicity (peripheral neuropathy, all severities), patients [1, 5]: 54.5%
- patients who reported Grade 1 neurotoxicity [1, 5]: 38.2%
- patients who reported Grade 2 peripheral neuropathy [1, 5]: 16.4%
- Grade 3 or 4 neurotoxicity ([1]; Phase I studies, including patients who received up to 9 cycles of chemotherapy): No patient experienced Grade 3 or 4 neurotoxicity
- peripheral neuropathy as dose limiting toxicity ([1]; administered concurrently with paclitaxel and cisplatin chemotherapy): not a dose limiting toxicity
- effect on incidence of neurotoxicity versus historical control ([1]; concurrent administration with cisplatin and paclitaxel chemotherapy): decreases the incidence of neurotoxicity
- Incidence of neurotoxicity, Neurotoxicity Grade (NCI-CTC) 1 [2]: 8 (22.2) Number (%) of Patients
- Incidence of neurotoxicity, Neurotoxicity Grade (NCI-CTC) 2 [2]: 8 (22.2) Number (%) of Patients
- Incidence of neurotoxicity, Neurotoxicity Grade (NCI-CTC) 3 [2]: 0 (0.0) Number (%) of Patients
- Incidence of neurotoxicity, Neurotoxicity Grade (NCI-CTC) 4 [2]: 0 (0.0) Number (%) of Patients
- Incidence of neurotoxicity, Neurotoxicity Grade (NCI-CTC) ≧2 [2]: 8 (22.2) Number (%) of Patients
- Incidence of neurotoxicity, Overall (all grades) [2]: 16 (44.0) Number (%) of Patients
- Inhibition Rate (of latent period elongation) (female Wistar rats; 500 mg/kg iv with paclitaxel 6 mg/kg, Day 9): (17.8) %
- Inhibition Rate (of latent period elongation) (female Wistar rats; 500 mg/kg iv with paclitaxel 6 mg/kg, Day 10): (18.0) %
- Inhibition Rate (of latent period elongation) (female Wistar rats; 500 mg/kg iv with paclitaxel 6 mg/kg, Day 11): (19.4) %
- Inhibition Rate (of latent period elongation) (female Wistar rats; 1,000 mg/kg iv with paclitaxel 6 mg/kg, Day 9): (43.3) %
- Inhibition Rate (of latent period elongation) (female Wistar rats; 1,000 mg/kg iv with paclitaxel 6 mg/kg, Day 10): (38.0) %
- Inhibition Rate (of latent period elongation) (female Wistar rats; 1,000 mg/kg iv with paclitaxel 6 mg/kg, Day 11): (51.0) %
- effect on elongation of the latent period (female Wistar rats; 1000 mg/kg, day 9, p<0.05, Dunnet test): significant suppressing effects
- effect on latent period (female Wistar rats; groups receiving 500 mg/kg or 1000 mg/kg in advance of paclitaxel): suppressing tendency as a whole
- effect on paclitaxel-induced abnormal thermoesthesia (female Wistar rats; overall conclusion of Example 1): mitigates effectively
- Incidence of neurotoxicity, Neurotoxicity Grade (NCI-CTC) 1 [3]: 13 (68.4) Number (%) of Patients
- Incidence of neurotoxicity, Neurotoxicity Grade (NCI-CTC) 2 [3]: 1 (5.2) Number (%) of Patients
- Incidence of neurotoxicity, Neurotoxicity Grade (NCI-CTC) 3 [3]: 0 (0.0) Number (%) of Patients
- Incidence of neurotoxicity, Neurotoxicity Grade (NCI-CTC) 4 [3]: 0 (0.0) Number (%) of Patients
- Incidence of neurotoxicity, Neurotoxicity Grade (NCI-CTC) ≧2 [3]: 1 (5.2) Number (%) of Patients
- Incidence of neurotoxicity, Overall (all grades) [3]: 14 (73.6) Number (%) of Patients

- latent period (female Wistar rats; paclitaxel alone, day 9 post-treatment): 18.9 ± 1.4 s
- latent period (female Wistar rats; paclitaxel alone, day 10 post-treatment): 19.9 ± 2.2 s
- latent period (female Wistar rats; paclitaxel alone, day 11 post-treatment): 19.4 ± 2.4 s
- latent periods compared with control groups (female Wistar rats; paclitaxel alone, p<0.01, student's t-test or Man-Whitney U-test): significantly elongated
- latent period (female Wistar rats; paclitaxel alone, prior to the initiation of paclitaxel administration (pretreatment)): 9.4 ± 1.0 s
SMILES: CC(=O)O[C@H]1C(=O)[C@@]2(C)[C@H]([C@H](OC(=O)c3ccccc3)[C@]3(O)C[C@H](OC(=O)[C@H](O)[C@@H](NC(=O)c4ccccc4)c4ccccc4)C(C)=C1C3(C)C)[C@]1(OC(C)=O)CO[C@@H]1C[C@@H]2O [Paclitaxel, paclitaxel, reference compound]
